Earlier results in patent publication US7612104B2, “Bicyclic aryl-sulfonic acid [1,3,4]-thiadiazol-2-yl-amides, processes for their preparation, pharmaceutical compositions and methods for their use” (Sanofi-Aventis, priority 2005, dated 2009).
Read-outs that look alike come from different tables or passages of the source.

What was measured:
PPARdelta [1] = details: diabetic animal model; cited from earlier work
PPARdelta [2] = molecular target: T1, PPARdelta (Macaca mulatta, UniProt I0FFS1); details: obese, insulin resistant rhesus monkeys; cited from earlier work
T1 construct: host or cells: rhesus monkeys in vivo
T1 sequence (I0FFS1 1-441): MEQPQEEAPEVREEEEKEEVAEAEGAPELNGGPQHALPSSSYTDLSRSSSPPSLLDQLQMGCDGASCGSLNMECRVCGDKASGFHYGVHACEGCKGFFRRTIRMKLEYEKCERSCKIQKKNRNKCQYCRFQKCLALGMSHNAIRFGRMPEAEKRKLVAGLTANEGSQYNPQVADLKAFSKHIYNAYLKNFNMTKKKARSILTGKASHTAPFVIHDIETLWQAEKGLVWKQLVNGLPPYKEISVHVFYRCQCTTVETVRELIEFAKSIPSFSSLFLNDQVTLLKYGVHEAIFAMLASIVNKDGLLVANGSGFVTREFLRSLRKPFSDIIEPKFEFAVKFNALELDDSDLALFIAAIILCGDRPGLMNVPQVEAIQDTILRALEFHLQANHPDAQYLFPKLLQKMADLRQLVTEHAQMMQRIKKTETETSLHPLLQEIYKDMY

PPARdelta/PPARalpha [3] = details: rhesus and cynomolgus monkeys; cited from earlier work
PPARdelta/PPARalpha [4] = details: two weeks clinical trials in healthy volunteers; cited from earlier work

In the case of `CCCc1c(OCCCOc2ccc(OCC(=O)O)cc2)ccc(C(C)=O)c1O` [Example L-165041], the plasma cholesterol (PPARdelta [1]) is listed as “raises plasma cholesterol”.

For `Cc1cc(SCc2sc(-c3ccc(C(F)(F)F)cc3)nc2C)ccc1OCC(=O)O` [GW501516], the HDL-cholesterol (PPARdelta [2]) is given as “raises”, the insulin levels (PPARdelta [2]) is given as “decreases” and the “plasma LDL-cholesterol” value (PPARdelta [2]) is given as “decreases”. The triglycerides (PPARdelta [2]) was “decreases”.

For `CCCc1c(OCCCSc2nnc(SCC(=O)O)s2)ccc(C(C)=O)c1O` [YM-16638], the plasma lipids (PPARdelta/PPARalpha [3]) is listed as “significantly lowers” and the plasma lipids (PPARdelta/PPARalpha [4]) is listed as “acts in a similar manner”.
